In ChEMBL document CHEMBL1201862, “PubChem BioAssay data set” (2004):
Calls of active or inactive are those of the source.

What was measured:
[1] = PAX8-dependent cell viability loss – plate reader, dry powder, dose response (AID 743049); format: functional, cell-based
[2] = COV362 cell viability loss – plate reader, dry powder, SA12, cytotoxicity control for PAX8 inhibitor project, dose response (AID 743144); format: functional, cell-based
[3] = IGROV1 cell killing – plate reader, dry powder samples, PAX8 inhibitor project, dose response (AID 743043); format: functional, cell-based; settings: IGROV-1
[4] = OVCAR-3 cell viability loss – plate reader, dry powder samples, PAX8 inhibitor project, dose response (AID 743044); format: functional, cell-based
[5] = activation of miR-122 Renilla sensor silencing – cell-based, Huh7 psiCHECK-miR122, Renilla luciferase, cherry-picked, dose response (AID 651956); format: functional;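 note: huh7 hepatoma cells stably carrying a psiCHECK-2 miR-122 sensor plasmid; renilla luciferase signal reporting endogenous miR-122 activity after 48 h compound exposure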
Paired box protein Pax-8 = Paired box protein Pax-8 (Homo sapiens, UniProt Q06710); test: PAX8 transcriptional activity inhibition in RMG-I – RMG-I cells, luciferase, cherry-pick, dose response (AID 687027); format: functional, cell-based;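 note: luciferase reporter driven by Pax8 target thyroperoxidase promoter measured by SteadyGlo luminescence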
Chain of Paired box protein Pax-8 (Q06710 whole entry): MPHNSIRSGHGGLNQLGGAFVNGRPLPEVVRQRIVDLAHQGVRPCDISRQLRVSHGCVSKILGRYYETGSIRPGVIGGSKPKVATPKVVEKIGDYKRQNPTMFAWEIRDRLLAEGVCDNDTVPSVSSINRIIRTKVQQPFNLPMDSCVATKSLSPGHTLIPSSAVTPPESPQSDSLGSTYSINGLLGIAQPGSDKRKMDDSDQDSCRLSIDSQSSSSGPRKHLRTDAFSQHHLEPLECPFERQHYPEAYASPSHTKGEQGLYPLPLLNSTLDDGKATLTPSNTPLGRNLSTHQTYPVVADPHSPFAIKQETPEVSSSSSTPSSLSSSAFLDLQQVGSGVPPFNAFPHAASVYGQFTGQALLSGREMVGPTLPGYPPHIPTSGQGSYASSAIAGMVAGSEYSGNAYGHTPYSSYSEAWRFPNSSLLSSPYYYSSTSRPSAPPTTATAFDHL

[6] = COV434 cell viability loss – plate reader, dry powder, SA7, cytotoxicity control for PAX8 inhibitor project, dose response (AID 743145); format: functional, cell-based
[7] = OVCAR4 cell viability loss – plate reader, dry powder, SA11, cytotoxicity control for PAX8 inhibitor project, dose response (AID 743150); format: functional, cell-based; settings: OVCAR-4
[8] = reduced cellular PGC1a acetyl-lysine signal – cell-based, cherry-picked samples, dose response (AID 720514); format: functional;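 note: potency may reflect raised or lowered acetylation signal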
[9] = toxicity toward immortalized ovarian surface epithelium – cell-based, plate reader, dry powder samples, cytotoxicity control for PAX8 inhibitor project, dose response (AID 743045); format: functional
[10] = OV-90 cell viability loss – plate reader, dry powder, SA8, PAX8 inhibitor project, dose response (AID 743149); format: functional, cell-based
[11] = OVCAR8 cell viability loss – plate reader, dry powder samples, PAX8 project, dose response (AID 743197); format: functional, cell-based; settings: OVCAR-8
[12] = cytotoxicity in MITF-independent A375 cells – cell-based, CellTiter-Glo luminescence, dry powder, set 4, counter-screen for MITF inhibitor project, dose response (AID 624364); format: functional; settings: A-375;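 note: A375 melanoma cells are MITF independent so this is a counter screen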
[13] = viability loss in MITF-independent A375 cells – cell-based, CellTiter-Glo luminescence, dry powder, set 2, counter-screen for MITF inhibitor project, dose response (AID 624489); format: functional; settings: A-375;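 note: actives are compounds lowering A375 viability meaning general cytotoxicity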
[14] = A Cell-Based Confirmatory Screen for Compounds that Inhibit VEEV, TC-83 (7).; format: functional
[15] = general cell-killing toxicity readout – plate reader, dry powder samples, cytotoxicity control for PAX8 inhibitor project, dose response (AID 743021); format: functional, cell-based
[16] = HEK293 Cytotoxicity Assay Measured in Cell-Based System Using Plate Reader - 7071-01_Inhibitor_Dose_CherryPick_Activity_Set2.; format: functional
HEK293 = test: viability loss in HEK293T cells – cell-based, ATP luminescence, cherry-pick samples, cytotoxicity control, dose response (AID 687005); format: functional; settings: Homo sapiens;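 note: cells exposed to compound for 48 hours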
[17] = Late stage counterscreen for inhibitors of Trypanosoma brucei methionyl tRNA synthetase (MetRS): Luminescence-based cell-based high throughput dose response assay to identify compounds that are cytotoxic to Jurkat human T lymphocyte cells.; format: functional
[18] = Counterscreen for inhibitors of Trypanosoma brucei methionyl tRNA synthetase (MetRS): Luminescence-based cell-based high throughput dose response assay to identify compounds that are cytotoxic to Jurkat human T lymphocyte cells.; format: functional
[19] = molecular target: T1, Methionyl-tRNA synthetase, putative (Trypanosoma brucei brucei, UniProt Q38C91); format: functional, Trypanosoma brucei brucei strain 927/4 GUTat10.1
T1 sequence (Q38C91 whole entry): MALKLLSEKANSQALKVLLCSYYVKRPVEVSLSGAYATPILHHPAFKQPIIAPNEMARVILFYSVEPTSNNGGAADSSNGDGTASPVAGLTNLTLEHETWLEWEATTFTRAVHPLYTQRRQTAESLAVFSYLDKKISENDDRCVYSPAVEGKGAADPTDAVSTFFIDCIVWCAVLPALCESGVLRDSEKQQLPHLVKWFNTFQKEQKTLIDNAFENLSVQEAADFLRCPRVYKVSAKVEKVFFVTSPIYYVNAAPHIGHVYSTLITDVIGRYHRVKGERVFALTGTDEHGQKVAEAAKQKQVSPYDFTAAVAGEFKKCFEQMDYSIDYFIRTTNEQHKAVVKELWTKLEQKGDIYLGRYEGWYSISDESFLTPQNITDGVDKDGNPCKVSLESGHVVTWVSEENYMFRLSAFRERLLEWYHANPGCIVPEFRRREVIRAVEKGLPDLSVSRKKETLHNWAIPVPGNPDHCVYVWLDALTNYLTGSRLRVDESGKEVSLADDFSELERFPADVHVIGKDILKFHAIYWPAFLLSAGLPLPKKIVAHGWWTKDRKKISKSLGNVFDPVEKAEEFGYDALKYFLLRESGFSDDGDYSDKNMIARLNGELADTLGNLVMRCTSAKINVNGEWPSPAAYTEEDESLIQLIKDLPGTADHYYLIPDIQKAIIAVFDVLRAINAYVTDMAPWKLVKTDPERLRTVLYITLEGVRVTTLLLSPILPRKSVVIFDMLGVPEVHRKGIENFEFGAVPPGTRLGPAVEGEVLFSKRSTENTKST

Vero = test: cells; format: functional; settings: Chlorocebus sabaeus
[20] = molecular target: T1, Methionyl-tRNA synthetase, putative; format: functional, Trypanosoma brucei brucei strain 927/4 GUTat10.1; remark: listed apart in the source
[21] = Late stage assay provider results from the probe development effort to identify inhibitors of the Plasmodium falciparum M17 Leucine Aminopeptidase (M17LAP): radiolabel-based cell-based dose response assay to identify compounds that inhibit P. falciparum growth in RBCs Set 2.; format: functional
cells [22] = settings: A549
cells [23] = test: cells
Bcl-2-like protein 10 = molecular target: T2, Bcl-2-like protein 10 (Homo sapiens, UniProt Q9HD36); test: Bcl-B/TR3 peptide binding disruption – biochemical, fluorescence polarization, FITC-TR3 peptide, selectivity assay for Bfl-1 inhibitor project, primary screen (AID 748);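 note: fluorescence polarization from a fluorescein-labelled TR3 peptide binding purified Bcl-B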
T2 sequence (Q9HD36 whole entry): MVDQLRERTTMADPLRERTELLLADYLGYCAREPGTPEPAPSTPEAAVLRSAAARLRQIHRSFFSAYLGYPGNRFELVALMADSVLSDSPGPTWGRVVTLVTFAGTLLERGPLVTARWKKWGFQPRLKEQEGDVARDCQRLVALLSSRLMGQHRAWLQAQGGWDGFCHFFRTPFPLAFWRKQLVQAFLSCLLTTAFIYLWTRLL

[24] = growth inhibition of replicating M. tuberculosis, dose response, counter-screen, dry powder, IC90 (AID 651617); format: functional; settings: Mycobacterium tuberculosis
[25] = inhibitors of non-replicating M. tuberculosis, dose response, luciferase, dry powder (AID 651619); format: functional; settings: Mycobacterium tuberculosis
[26] = inhibitors of non-replicating M. tuberculosis, dose response, luciferase, dry powder (AID 651620); format: functional; settings: Mycobacterium tuberculosis
[27] = HeLa cell viability loss – plate reader, dry powder, cytotoxicity control, dose response (AID 651946); format: functional, cell-based

SMILES: CN(C[C@H]1N[C@@H](CO)[C@@H]1c1ccc(C2=CCCC2)cc1)C(=O)c1ccc(F)cc1
- AC50 [1]: 2.21 µM (active)
- AC50 [2]: 3.27 µM (active)
- AC50 [3]: 4.15 µM (active)
- AC50 [4]: 5.63 µM (active)
- AC50 [5]: 13 µM (active)
- AC50 (Paired box protein Pax-8): 0.895 µM (active)
- AC50 [6]: 5.17 µM (active)
- AC50 [7]: 1.57 µM (active)
- AC50 [8]: 0.25 µM (active)
- AC50 [9]: 3.25 µM (active)
- AC50 [10]: 9.17 µM (active)
- AC50 [11]: 4.04 µM (active)

SMILES: CC(=O)NC1=C(c2ccc3c(c2)oc2ccccc23)C(=O)c2ccccc2C1=O
- AC50 [12]: 26.9 µM (active)
- AC50 [13]: 14.9 µM (active)

SMILES: CN(c1ccc(OCc2ccccc2)cc1)c1nc(=O)c2cccnc2s1
- IC50 [14]: 2.33 µM (active)

SMILES: CC(C)(C)OC(=O)NCCCC[C@H](NC(=O)c1[nH]cnc1C(=O)Nc1ccc(CNC(=O)OC(C)(C)C)cc1)C(=O)OC(C)(C)C
- AC50 [15]: 7.72 µM (active)
- AC50 (Paired box protein Pax-8): 4.41 µM (active)

SMILES: Cc1cccc(C)c1NC(=O)CNC(=O)C(C)N1CCCCC1 (configuration not stated)
- AC50 [16]: > 52 µM (inactive)
- AC50 (HEK293): > 52 µM (inactive)

SMILES: O=C(C[C@H]1C(=O)N(Cc2ccccc2)C[C@@H]1c1ccc(Br)cc1)Nc1ccc(Br)cc1
- IC50 [17]: 66.5 µM (inactive)
- IC50 [18]: 83.3 µM (inactive)
- IC50 [19]: 3.46 µM (active)
- CC50 (Vero): > 25 µM (active)
- IC50 [20]: 1.78 µM (active)

SMILES: CCCOc1ccc(CC(=O)NO)cc1
- IC50 [21]: 8.6 µM (active)

SMILES: Cn1c(=N)c(S(=O)(=O)c2ccccc2)cc2c(=O)n3ccccc3nc21
- AC50 (cells [22]): > 52 µM (inactive)
- AC50 (cells [23]): 1.26 µM (active)
- IC50 (Bcl-2-like protein 10): > 12.5 µM (inactive)

SMILES: Cc1cccc(CSc2nnc(-c3ccc(Cl)cc3)o2)n1
- IC90 [24]: 125 µM (active)
- IC90 [25]: 2 µM (active)
- IC90 [26]: 2 µM (active)
- AC50 [27]: > 24 µM (inactive)
